Reference: patent US5646313A, “Amino acid derivatives, processes for their preparation and their therapeutic application” (Societe Civile Bioprojet, priority 1993, dated 1997)

Biological target: enkephalinase
Test: in vitro assay of the enkephalinase-inhibitory activity (J. Pharmac. Exp. Ther., 1987, 243, 666)
Type: biochemical
Conditions: (E) isomer, read-out: (E) Isomer IC50
Description: An assay of the enkephalinase-inhibitory activity (J. Pharmac. Exp. Ther., 1987, 243, 666) of the compounds of formulae (Ia) and (Ib) was performed.

Row | Compound | IC50 [nM]
1 | O=C(O)CCCNC(=O)/C(=C\c1ccccc1)CS [Ex 16, 4-N-(E)-[1-oxo-2-(mercaptomethyl)-3-phenylpropenyl]aminobutanoic acid] | 6.4
2 | COc1ccc(/C=C(/CS)C(=O)NCCC(=O)O)cc1 [Ex 19, N-(E)-[1-oxo-2-(mercaptomethyl)-3-(4-methoxyphenyl)propenyl]-β-alanin] | 2.7
3 | O=C(O)CCNC(=O)/C(=C\c1ccc(C(F)(F)F)cc1)CS [Ex 22, N-(E)-[1-oxo-2-(mercaptomethyl)-3-(4-trifluoromethylphenyl)propenyl]-β-alanine] | 12.1
4 | O=C(O)CCNC(=O)/C(=C\c1ccc(-c2ccccc2)cc1)CS [Ex 25, N-(E)-[1-oxo-2-(mercaptomethyl)-3-(4-phenylphenyl)propenyl]-β-alanine] | 7.5
5 | CCOc1ccc(/C=C(/CS)C(=O)NCCC(=O)O)cc1 [Ex 28, N-(E)-[1-oxo-2-(mercaptomethyl)-3-(4-ethoxyphenyl)propenyl]-β-alanine] | 11.8
6 | O=C(O)CCNC(=O)/C(=C\c1cc(F)cc(F)c1)CS [Ex 33, N-(E)-[1-oxo-2-(mercaptomethyl)-3-(3,5-difluorophenyl)propenyl]-β-alanine] | 5.9
7 | O=C(O)CCNC(=O)/C(=C\c1ccc(Oc2ccccc2)cc1)CS [Ex 41, N-(E)-[1-oxo-2-(mercaptomethyl)-3-(4-phenoxyphenyl)propenyl]-β-alanine] | 5.8
8 | CC(=O)SC/C(=C/c1ccc2c(c1)OCO2)C(=O)NCCC(=O)OCc1ccccc1 [Ex 43, benzyl N-(E)-[1-oxo-2-(acetylthiomethyl)-3-(3,4-methylenedioxyphenyl)propenyl]-β-alaninate] | 19

Continued, values first:

Row | IC50 [nM] | Compound
9 | 7 | CC(CC(=O)O)NC(=O)/C(=C\c1ccccc1)CS (racemic) [Ex 12, 3-(RS)-N-(E)-[1-oxo-2-(mercaptomethyl)-3-phenylpropenyl]aminobutanoic acid]
10 | 10 | CC(CNC(=O)/C(=C\c1ccccc1)CS)C(=O)O (racemic) [Ex 14]
11 | 2.8 | O=C(O)CCNC(=O)/C(=C\c1ccccc1)CS [Ex 4, N-(E)-[1-oxo-2-(mercaptomethyl)-3-phenylpropenyl]-β-alanine]

Same assay, conditions: (Z) isomer, read-out: (Z) Isomer IC50

Row | IC50 [nM] | Compound
12 | 171 | O=C(O)CCNC(=O)/C(=C/c1ccccc1)CS [Ex 38, N-(Z)-[1-oxo-2-(mercaptomethyl)-3-phenylpropenyl]-β-alanine]
